Data published in paper PMC4168798 (ACS Chemical Biology, 2014).

Experiments:
[1] = molecular target: T1, Mcl-1 (Homo sapiens, UniProt Q07820); assay: direct fluorescence anisotropy binding
[2] = molecular target: T2, KSBcl-2 (Human herpesvirus 8 type P, UniProt F5HGJ3); assay: direct fluorescence anisotropy binding; set-up: species or system Kaposi sarcoma herpesvirus
T2 sequence (F5HGJ3 1-150): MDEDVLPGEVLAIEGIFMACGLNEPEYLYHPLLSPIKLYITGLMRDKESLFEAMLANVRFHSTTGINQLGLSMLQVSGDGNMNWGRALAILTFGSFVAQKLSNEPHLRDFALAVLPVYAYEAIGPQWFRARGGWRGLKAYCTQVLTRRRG

[3] = test system: Bcl-xL; details: NoxaA BH3 peptide from murine Noxa; cited from earlier work
[4] = test system: Bcl-2; details: NoxaA BH3 peptide from murine Noxa; cited from earlier work
[5] = test system: Bcl-w; details: NoxaA BH3 peptide from murine Noxa; cited from earlier work
[6] = test system: Bfl-1; details: NoxaA BH3 peptide from murine Noxa; cited from earlier work
[7] = molecular target: T1, Mcl-1; assay: competition fluorescence anisotropy vs fluoresceinated Bim; details: biochemical competition binding experiments; four other human Bcl-2 paralogs
[8] = molecular target: T3, Bfl-1 (Homo sapiens, UniProt Q16548); assay: direct fluorescence anisotropy binding
T3 sequence (Q16548 1-151 limits assumed): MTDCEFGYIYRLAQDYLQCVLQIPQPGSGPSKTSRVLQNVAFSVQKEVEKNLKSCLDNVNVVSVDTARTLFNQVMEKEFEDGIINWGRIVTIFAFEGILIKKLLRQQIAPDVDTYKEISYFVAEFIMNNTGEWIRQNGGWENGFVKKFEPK

[9] = molecular target: T4, Bcl-w (Homo sapiens, UniProt Q92843); assay: direct fluorescence anisotropy binding
T4 sequence (Q92843 1-164 limits assumed): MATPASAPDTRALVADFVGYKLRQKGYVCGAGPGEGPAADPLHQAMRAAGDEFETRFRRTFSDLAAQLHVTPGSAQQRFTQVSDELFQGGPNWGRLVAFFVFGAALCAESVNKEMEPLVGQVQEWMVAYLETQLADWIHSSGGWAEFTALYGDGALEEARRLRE

[10] = molecular target: Bcl-xL (Homo sapiens, UniProt Q07817); assay: direct fluorescence anisotropy binding
Bcl-xL (Homo sapiens, UniProt Q07817), sequence (Q07817 1-209 limits assumed): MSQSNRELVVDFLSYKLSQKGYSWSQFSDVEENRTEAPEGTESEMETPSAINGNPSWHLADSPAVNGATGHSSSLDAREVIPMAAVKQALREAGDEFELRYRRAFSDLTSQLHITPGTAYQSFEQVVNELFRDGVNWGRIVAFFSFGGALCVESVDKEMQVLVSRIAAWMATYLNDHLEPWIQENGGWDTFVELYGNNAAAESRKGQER

[11] = molecular target: Bcl-2 (Homo sapiens, UniProt P10415); assay: direct fluorescence anisotropy binding
Bcl-2 (Homo sapiens, UniProt P10415), sequence (P10415 1-217 limits assumed): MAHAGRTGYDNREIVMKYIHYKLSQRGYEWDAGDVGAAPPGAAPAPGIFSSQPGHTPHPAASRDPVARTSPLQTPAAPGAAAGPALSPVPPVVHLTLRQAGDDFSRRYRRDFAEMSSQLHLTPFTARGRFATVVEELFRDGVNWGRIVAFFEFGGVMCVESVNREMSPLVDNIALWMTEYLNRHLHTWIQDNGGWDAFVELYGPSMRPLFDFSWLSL

T1 sequence (Q07820 172-327 limits assumed): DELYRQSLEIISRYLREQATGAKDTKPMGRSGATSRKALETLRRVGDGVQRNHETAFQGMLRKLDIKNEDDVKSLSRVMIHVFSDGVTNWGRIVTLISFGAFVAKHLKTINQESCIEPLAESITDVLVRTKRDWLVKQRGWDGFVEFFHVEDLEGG

CC[C@H](C)[C@H](NC(=O)[C@H](CCCNC(=N)N)NC(=O)[C@H](CCCNC(=N)N)NC(=O)[C@H](CC(C)C)NC(=O)[C@H](CCC(=O)O)NC(=O)[C@H](CCC(N)=O)NC(=O)[C@@H](NC(=O)[C@@H](NC(=O)[C@H](Cc1c[nH]c2ccccc12)NC(=O)[C@@H](NC(=O)[C@H](CCC(=O)O)NC(=O)[C@@H]1CCCN1C(=O)[C@@H](N)CCCNC(=N)N)[C@@H](C)CC)[C@@H](C)CC)[C@@H](C)O)C(=O)NCC(=O)N[C@@H](CC(=O)O)C(=O)N[C@@H](CCC(=O)O)C(=O)N[C@@H](Cc1ccccc1)C(=O)N[C@@H](CC(N)=O)C(=O)N[C@@H](C)C(=O)N[C@@H](Cc1ccc(O)cc1)C(=O)N[C@@H](Cc1ccc(O)cc1)C(=O)N[C@@H](C)C(=O)N[C@@H](CCCNC(=N)N)C(N)=O [Bim_A2eT] gave a Kd [1] of under 1 nM.
Compound CC[C@H](C)[C@H](NC(=O)[C@H](CCC(=O)O)NC(=O)[C@H](CC(=O)O)NC(=O)CNC(=O)[C@H](CC(C)C)NC(=O)[C@H](CCCNC(=N)N)NC(=O)[C@H](CCC(N)=O)NC(=O)[C@H](CC(C)C)NC(=O)[C@H](CO)NC(=O)[C@H](CCC(N)=O)NC(=O)[C@@H](NC(=O)[C@H](CC(C)C)NC(=O)[C@H](Cc1c[nH]c2ccccc12)NC(=O)[C@@H](NC(=O)[C@H](CCC(=O)O)NC(=O)[C@@H]1CCCN1C(=O)[C@H](CCCNC(=N)N)NC(C)=O)[C@@H](C)CC)[C@@H](C)O)C(=O)N[C@@H](CC(N)=O)C(=O)N[C@@H](C)C(=O)N[C@@H](Cc1ccc(O)cc1)C(=O)N[C@@H](Cc1ccc(O)cc1)C(=O)N[C@@H](C)C(=O)N[C@@H](CCCNC(=N)N)C(N)=O [MS2] has a Kd [2] of under 1 nM.
For CC[C@H](C)[C@H](NC(=O)[C@H](CCCCN)NC(=O)[C@H](CCCNC(=N)N)NC(=O)[C@H](CC(C)C)NC(=O)[C@H](CCC(N)=O)NC(=O)[C@H](C)NC(=O)[C@H](C)NC(=O)[C@H](Cc1ccccc1)NC(=O)[C@H](CCC(=O)O)NC(=O)[C@@H]1CCCN1C(=O)[C@@H]1CCCN1C(=O)[C@H](CC(C)C)NC(=O)[C@H](CCC(=O)O)NC(=O)[C@H](C)NC(C)=O)C(=O)NCC(=O)N[C@@H](CC(=O)O)C(=O)N[C@@H](CCCCN)C(=O)N[C@H](C(=O)N[C@@H](Cc1ccc(O)cc1)C(=O)N[C@@H](CS)C(N)=O)C(C)C [NoxaA], the “no binding to Bcl-xL up to” value [3] is given as over 2500 nM, the “no binding to Bcl-2 up to” value [4] is given as over 2500 nM and the “no binding to Bcl-w up to” value [5] is given as over 2500 nM. For the same compound, the “no binding to Bfl-1 up to” value [6] was over 2500 nM.
For CC[C@H](C)[C@H](NC(=O)[C@H](CCC(=O)O)NC(=O)[C@H](CC(=O)O)NC(=O)CNC(=O)[C@H](CC(C)C)NC(=O)[C@H](CCCNC(=N)N)NC(=O)[C@H](CCCNC(=N)N)NC(=O)[C@H](CC(C)C)NC(=O)CNC(=O)[C@H](CCC(N)=O)NC(=O)[C@@H](NC(=O)[C@H](CCSC)NC(=O)[C@H](Cc1c[nH]c2ccccc12)NC(=O)[C@@H](NC(=O)[C@H](CCC(=O)O)NC(=O)[C@@H]1CCCN1C(=O)[C@H](CCCNC(=N)N)NC(C)=O)[C@@H](C)CC)[C@@H](C)O)C(=O)N[C@@H](CC(N)=O)C(=O)N[C@@H](C)C(=O)N[C@@H](Cc1ccc(O)cc1)C(=O)N[C@@H](Cc1ccc(O)cc1)C(=O)N[C@@H](C)C(=O)N[C@@H](CCCNC(=N)N)C(N)=O [MS1], the Kd [2] was 2.9 ± 0.68 nM and the “specificity for Mcl-1 over Bcl-xL, Bcl-2, Bcl-w and Bfl-1” value [7] was at least 40 fold.
CC[C@H](C)[C@H](NC(=O)[C@H](CCC(=O)O)NC(=O)[C@@H]1CCCN1C(=O)[C@@H](N)CCCNC(=N)N)C(=O)N[C@@H](Cc1c[nH]c2ccccc12)C(=O)N[C@H](C(=O)N[C@H](C(=O)N[C@@H](CCC(N)=O)C(=O)N[C@@H](CCC(=O)O)C(=O)N[C@@H](CC(C)C)C(=O)N[C@@H](CCCNC(=N)N)C(=O)N[C@@H](CCCNC(=N)N)C(=O)N[C@@H](CC(C)C)C(=O)NCC(=O)N[C@@H](CC(=O)O)C(=O)N[C@@H](CCC(=O)O)C(=O)N[C@@H](Cc1ccccc1)C(=O)N[C@@H](CC(N)=O)C(=O)N[C@@H](C)C(=O)N[C@@H](Cc1ccc(O)cc1)C(=O)N[C@@H](Cc1ccc(O)cc1)C(=O)N[C@@H](C)C(=O)N[C@@H](CCCNC(=N)N)C(N)=O)[C@@H](C)O)[C@@H](C)CC [Bim_A2eT_I3dL] showed a Kd [1] of under 1 nM.
Work on CC[C@H](C)[C@H](NC(=O)[C@H](CCCNC(=N)N)NC(=O)[C@H](CCCNC(=N)N)NC(=O)[C@H](CC(C)C)NC(=O)[C@H](CCC(=O)O)NC(=O)[C@H](CCC(N)=O)NC(=O)[C@@H](NC(=O)[C@@H](NC(=O)[C@H](Cc1c[nH]c2ccccc12)NC(=O)[C@@H](NC(=O)[C@H](CCC(=O)O)NC(=O)[C@@H]1CCCN1C(=O)[C@@H](N)CCCNC(=N)N)[C@@H](C)CC)[C@@H](C)CC)[C@@H](C)O)C(=O)NCC(=O)N[C@@H](CC(=O)O)C(=O)N[C@@H](CCC(=O)O)C(=O)N[C@H](C(=O)N[C@@H](CC(N)=O)C(=O)N[C@@H](C)C(=O)N[C@@H](Cc1ccc(O)cc1)C(=O)N[C@@H](Cc1ccc(O)cc1)C(=O)N[C@@H](C)C(=O)N[C@@H](CCCNC(=N)N)C(N)=O)[C@@H](C)CC [Bim_A2eT_F4aI] yielded a Kd [1] of under 1 nM, a Kd [8] of 7.9 ± 2.1 nM and a Kd [9] of 16 ± 4.1 nM. For the same compound, the Kd [10] was 110 ± 62 nM and the Kd [11] was 150 ± 43 nM.
With CC[C@H](C)[C@H](NC(=O)[C@H](CCCNC(=N)N)NC(=O)[C@H](CCCNC(=N)N)NC(=O)[C@H](CC(C)C)NC(=O)[C@H](CCC(=O)O)NC(=O)[C@H](CCC(N)=O)NC(=O)[C@@H](NC(=O)[C@H](CCSC)NC(=O)[C@H](Cc1c[nH]c2ccccc12)NC(=O)[C@@H](NC(=O)[C@H](CCC(=O)O)NC(=O)[C@@H]1CCCN1C(=O)[C@@H](N)CCCNC(=N)N)[C@@H](C)CC)[C@@H](C)O)C(=O)NCC(=O)N[C@@H](CC(=O)O)C(=O)N[C@@H](CCC(=O)O)C(=O)N[C@@H](Cc1ccccc1)C(=O)N[C@@H](CC(N)=O)C(=O)N[C@@H](C)C(=O)N[C@@H](Cc1ccc(O)cc1)C(=O)N[C@@H](Cc1ccc(O)cc1)C(=O)N[C@@H](C)C(=O)N[C@@H](CCCNC(=N)N)C(N)=O [Bim_A2eT_I2dM] the Kd [1] was under 1 nM.
In the case of CC[C@H](C)[C@H](NC(=O)[C@H](CCC(=O)O)NC(=O)[C@H](CC(=O)O)NC(=O)CNC(=O)[C@H](CC(C)C)NC(=O)[C@H](CCCNC(=N)N)NC(=O)[C@H](CCC(N)=O)NC(=O)[C@H](CC(C)C)NC(=O)[C@H](Cc1c[nH]cn1)NC(=O)[C@H](CCC(N)=O)NC(=O)[C@@H](NC(=O)[C@H](CC(C)C)NC(=O)[C@H](Cc1c[nH]c2ccccc12)NC(=O)[C@@H](NC(=O)[C@H](CCC(=O)O)NC(=O)[C@@H]1CCCN1C(=O)[C@@H](N)CCCNC(=N)N)[C@@H](C)CC)[C@@H](C)O)C(=O)N[C@@H](CC(N)=O)C(=O)N[C@@H](C)C(=O)N[C@@H](Cc1ccc(O)cc1)C(=O)N[C@@H](Cc1ccc(O)cc1)C(=O)N[C@@H](C)C(=O)N[C@@H](CCCNC(=N)N)C(N)=O [MS3], the Kd [1] is reported as 2 ± 1.2 nM and the Kd [11] is reported as over 3000 nM.
